Assays:
11β-HSD1 = 11β-HSD1 (Homo sapiens (Human), UniProt P28845); assay: 11β-HSD1 inhibiting activity, HTRF assay with human microsomal fractions; format: biochemical; conditions: 160 nM cortisone, 200 μM NADPH, 2 h at 37° C.
Procedure: The inhibiting activity of 11β-HSD1 derived from microsomal fractions was measured using the HTRF assay (62CO2PEB, Cisbio). […] Europium (Eu^3+) cryptate and XL665-conjugated cortisol were then added to each well and incubated for an additional 2 h at room temperature. The Cortisol concentration was calculated u sing a calibration curve. The IC50 values were calculated from dose response curves using GraphPad Prism software.

KKAy mice = assay: In vivo study of the lowering effect on plasma glucose and plasma insulin in KKAy mouse model; conditions: for levels of plasma glucose and plasma insulin: either 100 mg/kg or 50 mg/kg; for Plasma glucose lowering effect / Plasma insulin lowering effect: oral, 3 weeks, after fasting

11β-HSD1, sequence (P28845 whole entry): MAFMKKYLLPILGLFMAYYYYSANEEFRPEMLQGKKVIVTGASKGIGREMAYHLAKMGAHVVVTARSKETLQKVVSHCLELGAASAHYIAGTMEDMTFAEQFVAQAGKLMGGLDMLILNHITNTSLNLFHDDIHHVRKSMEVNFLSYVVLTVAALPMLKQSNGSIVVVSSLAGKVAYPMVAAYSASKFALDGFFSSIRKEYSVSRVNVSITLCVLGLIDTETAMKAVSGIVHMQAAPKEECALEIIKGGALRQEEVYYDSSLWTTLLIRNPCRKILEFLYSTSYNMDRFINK

Compound | IC50 (11β-HSD1) [nM] | levels of plasma glucose and plasma insulin (KKAy mice) | Plasma glucose lowering effect (KKAy mice; 100 mg/kg) [%] | Plasma insulin lowering effect (KKAy mice; 100 mg/kg) [%] | Plasma glucose lowering effect (KKAy mice; 50 mg/kg) [%] | Plasma insulin lowering effect (KKAy mice; 50 mg/kg) [%]
CC(C)(NS(=O)(=O)c1ccccc1F)C(=O)NC1C2CC3CC1CC(C(N)=O)(C3)C2 (centres unmarked) [Example 71, E-4-[2-(2-fluoro-benzenesulfonylamino)-2-methylpropanamido]-adamantan-1-carboxylic acid amide] | 0.6 | significantly reduced | 27 | 40 |  | 
CC(C)(NS(=O)(=O)c1c(F)cccc1F)C(=O)NC1C2CC3CC1CC(C(N)=O)(C3)C2 (centres unmarked) [Example 84, E-4-[2-(2,6-difluoro-benzenesulfonylamino)-2-methylpropanamido]adamantan-1-carboxylic acid amide] |  | significantly reduced |  |  | 19 | 43
NC(=O)C12CC3CC(C1)C(NC(=O)c1cccc([N-]S(=O)(=O)c4cccc(Cl)c4F)c1)C(C3)C2.[Na+] (centres unmarked) [Example 113, E-sodium[3-((5-carbamoyladamantan-2-yl)carbamoyl)phenyl]-2-fluoro-3-chloro-benzenesulfonylamide] | 2.7 | significantly reduced | 28 | 60 |  | 
NC(=O)C12CC3CC(C1)C(NC(=O)c1cccc(NS(=O)(=O)c4cc(Cl)cc(Cl)c4)c1)C(C3)C2 (centres unmarked) [Example 119, E-4-[3-(3,5-dichloro-benzenesulfonylamino)benzamido]-adamantan-1-carboxylic acid amide] |  | significantly reduced |  |  | 47 | 52
